Measurements from article PMC11224111, “Optimizing the pharmacokinetics of an ^211At-labeled RGD peptide with an albumin-binding moiety via the administration of an albumin-binding inhibitor” (European Journal of Nuclear Medicine and Molecular Imaging, 2024).
Marks after values point to notes of the source that are not given here.

What was measured:
[1] = Biodistribution of [^211At]1 and [^125I]2 in normal mice with ibuprofen or IPBA as albumin-binding inhibitor; settings: 4 h after administration
Protocol: To evaluate the effects of albumin-binding inhibitors in normal mice, [^211At]1 (37 kBq) and [^125I]2 (37 kBq) were intravenously coadministered. […] The total blood albumin (1.1 µmol) in normal mice was calculated from the albumin concentration (3.0 g/dL ≈ 455 µM) in blood, which was informed from Japan SLC, Inc., total blood volume (2.5 mL) as 8% of body weight, and the molecular weight of albumin as 66,000 g/mol. […]
Table S1. Biodistribution of radioactivity 4 h after administration of [^211At]1 and [^125I]2 in normal mice.

[2] = set-up: method as in PMID 37819452; settings: normal mice; cited from earlier work
[3] = tested on: U-87 MG tumor-bearing mice; experiment: Therapeutic experiments in U-87 MG tumor-bearing mice; type: in vivo; settings: for Relative body weight / Relative tumor volume: 1.85 MBq with IPBA; for Relative body weight: relative to initial body weight; for Relative tumor volume: relative to initial tumor volume
Protocol: To prepare tumor-bearing mice, 5 × 10^6 of U-87 MG cells were subcutaneously inoculated into the right shoulder of 4-week-old female BALB/c nude mice (13–15 g, Japan SLC, Inc.) as previously reported. At approximately 10-day postinoculation of U-87 MG cells, they were used for each experiment after tumor size reached 0.3–0.5 cm^3.
U-87 MG tumor-bearing mice were divided into three groups, [^211At]1 (1.85 MBq) (n = 6) injected group, only […] (1.85 MBq) and IPBA (n = 6) injected group, and vehicle and IPBA (n = 3) injected group as a control group. In IPBA injected group, it was administered at 10 molar equivalent of blood albumin at 1-h postinjection of [^211At]1 or vehicle. Tumor volume and body weight of mice were monitored 5 or 6 times weekly. Tumor size was measured with a slide caliper, and tumor volume was calculated using a formula: volume = 4/3 π (1/2 length × 1/2 width × 1/2 height). Tumor volume and body weight compared to the values on the day of treatment (relative tumor volume). The mice were euthanized humanely when body weight was less than 80% at baseline (day 0) or when the tumor weight reached more than 10% of body weight as the endpoint.

[4] = tested on: U-87 MG tumor-bearing mice; set-up: method as in PMID 37819452; settings: 370 and 925 kBq without IPBA; cited from earlier work
[5] = tested on: U-87 MG tumor-bearing mice; set-up: method as in PMID 37819452; settings: until 24-h postinjection, nonadministration of IPBA; cited from earlier work
[6] = IPBA 10 eq at 1 h postinjection
[7] = ibuprofen 10 eq at 1 h postinjection

Ga-DOTA-K([^211At]APBA)-c(RGDfK) [[^211At]1]
Radioactivity, Blood ([1]; IPBA 2 eq at 1 h postinjection): 8.33 (0.29)^ a, b % injected activity per gram | Radioactivity, Bone ([1]; IPBA 2 eq at 1 h postinjection): 1.35 (0.06)^ a % injected activity per gram | Radioactivity, Brain ([1]; IPBA 2 eq at 1 h postinjection): 0.24 (0.04)^ a % injected activity per gram | Radioactivity, Heart ([1]; IPBA 2 eq at 1 h postinjection): 2.90 (0.09) ^a, b % injected activity per gram | Radioactivity, Kidney ([1]; IPBA 2 eq at 1 h postinjection): 3.36 (0.20) % injected activity per gram | Radioactivity, L. intestine ([1]; IPBA 2 eq at 1 h postinjection): 1.53 (0.39) % injected activity per gram | Radioactivity, Liver ([1]; IPBA 2 eq at 1 h postinjection): 1.68 (0.15)^ a % injected activity per gram | Radioactivity, Lung ([1]; IPBA 2 eq at 1 h postinjection): 4.96 (0.40)^ a, b % injected activity per gram | Radioactivity, Muscle ([1]; IPBA 2 eq at 1 h postinjection): 1.16 (0.09) % injected activity per gram | Radioactivity, Neck ([1]; IPBA 2 eq at 1 h postinjection): 0.23 (0.07)^ a % injected activity | Radioactivity, Pancreas ([1]; IPBA 2 eq at 1 h postinjection): 1.55 (0.15)^ a, b % injected activity per gram | Radioactivity, S. intestine ([1]; IPBA 2 eq at 1 h postinjection): 1.47 (0.05) % injected activity per gram | Radioactivity, Spleen ([1]; IPBA 2 eq at 1 h postinjection): 1.54 (0.18) % injected activity per gram | Radioactivity, Stomach ([1]; IPBA 2 eq at 1 h postinjection): 1.84 (0.32) % injected activity | Radioactivity, Blood ([1]; IPBA 5 eq at 1 h postinjection): 3.46 (0.33)^ a, b, c % injected activity per gram | Radioactivity, Bone ([1]; IPBA 5 eq at 1 h postinjection): 0.95 (0.08)^ a, b % injected activity per gram | Radioactivity, Brain ([1]; IPBA 5 eq at 1 h postinjection): 0.16 (0.01)^ a % injected activity per gram | Radioactivity, Heart ([1]; IPBA 5 eq at 1 h postinjection): 1.38 (0.13)^ a, b, c % injected activity per gram | Radioactivity, Kidney ([1]; IPBA 5 eq at 1 h postinjection): 3.67 (0.10) ^b % injected activity per gram | Radioactivity, L. intestine ([1]; IPBA 5 eq at 1 h postinjection): 0.84 (0.22) ^b % injected activity per gram | Radioactivity, Liver ([1]; IPBA 5 eq at 1 h postinjection): 1.35 (0.16)^ a, b, c % injected activity per gram | Radioactivity, Lung ([1]; IPBA 5 eq at 1 h postinjection): 2.84 (0.27)^ a, b, c % injected activity per gram | Radioactivity, Muscle ([1]; IPBA 5 eq at 1 h postinjection): 0.62 (0.04)^ a, b, c % injected activity per gram | Radioactivity, Neck ([1]; IPBA 5 eq at 1 h postinjection): 0.08 (0.02)^ a, b % injected activity | Radioactivity, Pancreas ([1]; IPBA 5 eq at 1 h postinjection): 1.03 (0.15)^ a, b, c % injected activity per gram | Radioactivity, S. intestine ([1]; IPBA 5 eq at 1 h postinjection): 1.35 (0.13) % injected activity per gram | Radioactivity, Spleen ([1]; IPBA 5 eq at 1 h postinjection): 1.19 (0.73)^ a % injected activity per gram | Radioactivity, Stomach ([1]; IPBA 5 eq at 1 h postinjection): 1.45 (0.45)^ a, b % injected activity | Radioactivity, Blood [1, 6]: 1.56 (0.20)^ a, b, c, d % injected activity per gram | Radioactivity, Bone [1, 6]: 0.98 (0.12)^ a, b, c % injected activity per gram | Radioactivity, Brain [1, 6]: 0.14 (0.02)^ a % injected activity per gram | Radioactivity, Heart [1, 6]: 0.78 (0.10)^ a, b, c, d % injected activity per gram | Radioactivity, Kidney [1, 6]: 3.77 (0.50)^ b % injected activity per gram | Radioactivity, L. intestine [1, 6]: 0.88 (0.27)^ b % injected activity per gram | Radioactivity, Liver [1, 6]: 0.80 (0.07)^ a, b, c % injected activity per gram | Radioactivity, Lung [1, 6]: 1.88 (0.12)^ a, b, c % injected activity per gram | Radioactivity, Muscle [1, 6]: 0.42 (0.03)^ a, b, c, d % injected activity per gram | Radioactivity, Neck [1, 6]: 0.03 (0.02)^ b, c, d % injected activity | Radioactivity, Pancreas [1, 6]: 0.66 (0.17)^ a, b, c, d % injected activity per gram | Radioactivity, S. intestine [1, 6]: 1.14 (0.08)^ a, b, d % injected activity per gram | Radioactivity, Spleen [1, 6]: 1.22 (0.17)^ a % injected activity per gram | Radioactivity, Stomach [1, 6]: 1.30 (0.20)^ d % injected activity | Radioactivity, Blood [1, 7]: 10.82 (0.58) ^a % injected activity per gram | Radioactivity, Bone [1, 7]: 1.57 (0.18)^ a % injected activity per gram | Radioactivity, Brain [1, 7]: 0.26 (0.03) % injected activity per gram | Radioactivity, Heart [1, 7]: 3.49 (0.36) % injected activity per gram | Radioactivity, Kidney [1, 7]: 3.03 (0.24) % injected activity per gram | Radioactivity, L. intestine [1, 7]: 2.32 (0.57) % injected activity per gram | Radioactivity, Liver [1, 7]: 1.87 (0.31)^ a % injected activity per gram | Radioactivity, Lung [1, 7]: 6.44 (1.14) % injected activity per gram | Radioactivity, Muscle [1, 7]: 1.28 (0.15) % injected activity per gram | Radioactivity, Neck [1, 7]: 0.18 (0.03)^ a % injected activity | Radioactivity, Pancreas [1, 7]: 1.85 (0.12) % injected activity per gram | Radioactivity, S. intestine [1, 7]: 1.58 (0.15) % injected activity per gram | Radioactivity, Spleen [1, 7]: 1.47 (0.29)^ a % injected activity per gram | Radioactivity, Stomach [1, 7]: 1.57 (0.21) % injected activity | Radioactivity, Blood ([1]; vehicle at 1 h postinjection): 14.03 (0.79) % injected activity per gram | Radioactivity, Bone ([1]; vehicle at 1 h postinjection): 1.88 (0.10) % injected activity per gram | Radioactivity, Brain ([1]; vehicle at 1 h postinjection): 0.37 (0.11) % injected activity per gram | Radioactivity, Heart ([1]; vehicle at 1 h postinjection): 3.83 (0.30) % injected activity per gram | Radioactivity, Kidney ([1]; vehicle at 1 h postinjection): 3.19 (0.20) % injected activity per gram | Radioactivity, L. intestine ([1]; vehicle at 1 h postinjection): 1.52 (0.35) % injected activity per gram | Radioactivity, Liver ([1]; vehicle at 1 h postinjection): 2.51 (0.20) % injected activity per gram | Radioactivity, Lung ([1]; vehicle at 1 h postinjection): 7.69 (0.63) % injected activity per gram | Radioactivity, Muscle ([1]; vehicle at 1 h postinjection): 1.26 (0.09) % injected activity per gram | Radioactivity, Neck ([1]; vehicle at 1 h postinjection): 0.05 (0.01) % injected activity | Radioactivity, Pancreas ([1]; vehicle at 1 h postinjection): 1.88 (0.10) % injected activity per gram | Radioactivity, S. intestine ([1]; vehicle at 1 h postinjection): 1.85 (0.16) % injected activity per gram | Radioactivity, Spleen ([1]; vehicle at 1 h postinjection): 2.02 (0.26) % injected activity per gram | Radioactivity, Stomach ([1]; vehicle at 1 h postinjection): 0.80 (0.10) % injected activity | Toxicity [2]: no serious hematotoxicity and weight loss | Body weight loss ([3]; 1.85 MBq followed by IPBA, temporary, recovered): less than 10% | Tumor growth ([3]; 1.85 MBq followed by IPBA, vs control group): significantly more inhibited than it was in the control group | Relative body weight ([3]; day 0 after injection): 1.00 (0.00) | Relative tumor volume ([3]; day 0 after injection): 1.00 (0.00) | Relative body weight ([3]; day 1 after injection): 0.99 (0.02) | Relative tumor volume ([3]; day 1 after injection): 1.14 (0.11) | Relative body weight ([3]; day 2 after injection): 0.99 (0.01) | Relative tumor volume ([3]; day 2 after injection): 1.19 (0.09) | Relative body weight ([3]; day 3 after injection): 0.97 (0.03) | Relative tumor volume ([3]; day 3 after injection): 1.23 (0.15) | Relative body weight ([3]; day 4 after injection): 0.96 (0.02) | Relative tumor volume ([3]; day 4 after injection): 1.21 (0.18) | Relative body weight ([3]; day 6 after injection): 0.93 (0.04) | Relative tumor volume ([3]; day 6 after injection): 1.24 (0.17) | Relative body weight ([3]; day 7 after injection): 0.94 (0.03) | Relative tumor volume ([3]; day 7 after injection): 1.25 (0.19) | Time within which all mice died ([3]; 1.85 MBq without IPBA): ≤ 9 days | Weight loss and death [4]: a little weight loss, but no mice died | Excretion, feces [5]: 2.75 ± 0.40 %IA | Excretion, urine [5]: 10.94 ± 2.66 %IA
